Assays:
[1] = system: Cdc7 (pS53MCM2 levels in HCT116 cells); assay: Cdc7 Cell Pharmacodynamics Assay Method 1: pS53MCM2 levels in HCT116 cells, 6 hours; assay type: cell-based; conditions: Homo sapiens, HCT-116, 6 h, read-out: Biomarker Method 1 (pEC50) (converted)
Procedure, shortened: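 HCT116 cells (wild-type p53), 20,000 per well in McCoys 5A with 10% FCS, treated with compound for 6 h at 37 °C. Lysates captured on total-MCM2 antibody and probed with anti-pMCM2 Ser53 plus HRP secondary; chemiluminescent read-out of pS53MCM2 levels.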

Cdc7/ASK = Cdc7/ASK (Homo sapiens, UniProt O00311); assay: Cdc7 Biochemical Assay Method 2: 384 well mobility shift assay (EZ Reader II), MCM2 peptide substrate; set-up: purchased; conditions: 12.5 μM ATP, read-out: Biochemical Method 2 (pIC50) (converted)
Cdc7/ASK, sequence (O00311 whole entry): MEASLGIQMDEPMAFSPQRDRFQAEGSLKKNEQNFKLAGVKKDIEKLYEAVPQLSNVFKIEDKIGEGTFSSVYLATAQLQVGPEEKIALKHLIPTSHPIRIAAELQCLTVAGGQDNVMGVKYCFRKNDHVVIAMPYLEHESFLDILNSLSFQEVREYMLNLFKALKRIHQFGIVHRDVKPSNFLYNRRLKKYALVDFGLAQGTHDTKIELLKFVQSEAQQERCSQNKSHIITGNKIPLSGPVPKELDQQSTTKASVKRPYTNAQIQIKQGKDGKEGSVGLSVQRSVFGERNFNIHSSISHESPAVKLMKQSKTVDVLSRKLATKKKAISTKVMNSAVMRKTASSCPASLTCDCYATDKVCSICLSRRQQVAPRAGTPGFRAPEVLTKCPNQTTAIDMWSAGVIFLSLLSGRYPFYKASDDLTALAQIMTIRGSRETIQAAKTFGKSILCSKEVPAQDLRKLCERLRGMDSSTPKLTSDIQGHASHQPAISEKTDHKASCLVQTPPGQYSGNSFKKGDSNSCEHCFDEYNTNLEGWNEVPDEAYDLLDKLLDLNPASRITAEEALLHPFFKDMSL
Cdc7/ASK, sequence (Q9UBU7 whole entry partner): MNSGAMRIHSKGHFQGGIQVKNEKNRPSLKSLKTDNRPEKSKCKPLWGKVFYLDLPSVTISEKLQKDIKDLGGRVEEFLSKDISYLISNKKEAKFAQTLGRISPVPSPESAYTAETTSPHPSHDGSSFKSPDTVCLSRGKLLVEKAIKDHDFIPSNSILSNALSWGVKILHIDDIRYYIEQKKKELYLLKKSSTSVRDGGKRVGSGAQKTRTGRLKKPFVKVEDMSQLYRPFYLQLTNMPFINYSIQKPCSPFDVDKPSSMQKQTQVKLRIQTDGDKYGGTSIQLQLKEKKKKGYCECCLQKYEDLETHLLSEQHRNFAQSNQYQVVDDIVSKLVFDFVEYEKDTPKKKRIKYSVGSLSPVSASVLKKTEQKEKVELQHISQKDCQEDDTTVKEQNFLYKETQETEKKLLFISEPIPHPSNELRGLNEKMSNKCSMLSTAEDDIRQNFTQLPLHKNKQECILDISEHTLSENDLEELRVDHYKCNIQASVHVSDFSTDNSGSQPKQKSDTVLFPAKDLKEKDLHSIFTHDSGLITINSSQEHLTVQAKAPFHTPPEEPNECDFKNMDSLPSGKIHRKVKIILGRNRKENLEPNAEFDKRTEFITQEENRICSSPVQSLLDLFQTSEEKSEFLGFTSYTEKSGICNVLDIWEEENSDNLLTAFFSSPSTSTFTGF
Experimental: This protocol describes a method for assaying Cdc7/ASK for activity. The assay is a 384 well mobility shift assay (MSA) run on the EZ Reader II microfluidics plate reader (Caliper LifeSciences), utilising a peptide substrate based on the MCM2 sequence. The assay technology is based on the change in mobility between the peptide substrate and the phosphorylated product. A 10 nL volume of the reaction mixture is sipped onto the microfluidic chip where the substrate and product are separated by electrophoresis and detected via laser-induced fluorescence (488 nm LED). The reaction can be monitored in real-time for kinetic experiments or as an end-point for IC50 determinations. The % conversion of substrate is calculated from peak heights of product (P) and substrate (S) peptides (% conversion=P/(P+S)*100).
• 10× Assay Buffer: 200 mM HEPES pH 8, 100 mM MgCl2, 0.1% v/v Triton X-100 and 15 mM DTT. Prepare fresh buffer from 1 M HEPES pH 8, 1 M MgCl2, 1 M DTT and 10% Triton x-100 stocks for each experiment. • Cdc7/ASK is purchased from commercial suppliers and used in the assay at a final assay concentration of 0.847 ng/μL or 9.2 nM. • MCM2 peptide is purchased from commercial suppliers and used in the assay at a final assay concentration of 2.5 μM. • ATP used in the assay at a final assay concentration of 12.5 μM. Methods • 1. Prepare intermediate (daughter) compound plate by transferring 2 μL of compound from the mother plate to 18 μL of 33.3% DMSO in a clear polypropylene plate. • 2. Dry-spot 1 μL of compound from the intermediate compound plate to empty assay plate. • 3. Add 5 μL of 1.694 ng/μL CDC7/ASK working solution to ‘test’ and ‘control’ wells or […] of 2× Assay Buffer to ‘blank’ wells. • 4. Add 4 μL 2.5 μM peptide/12.5 μM ATP working solution to all wells. • 5. Incubate at 37° C. for 1 hour then remove from the incubator and leave for a further 1 hour at room temperature. • 6. Place plate into an EZReader II to read.
Percentage inhibition values were calculated from % of substrate conversion values, using the no compound (DMSO) and no enzyme control values as 0% and 100% inhibition, respectively. IC50 determination was performed with ExcelFit software (IDBS) using curve fit 205. Z′ factors were determined for each plate tested and were all above 0.5.

| EC50 [1] [µM] | IC50 (Cdc7/ASK) [µM] | SMILES |
| --- | --- | --- |
| 0.347 | 0.00389 | O=c1[nH]c(-c2ccncc2)nc(N2CCCOCC2)c1Cl [Compound 186] |
| 0.178 | 0.000912 | CC(C)[C@H]1CN(c2nc(-c3ccncc3)[nH]c(=O)c2F)CCN1 [Compound 308] |
| 0.0316 | 0.00117 | CC(C)[C@H]1CN(c2nc(-c3ccnc(F)c3)[nH]c(=O)c2Cl)CCN1 [Compound 170] |
| 0.0204 | 0.000501 | C[C@@H]1CNCCN1c1nc(-c2ccncc2)[nH]c(=O)c1Cl [Compound 364] |
| 0.324 | – | O=c1[nH]c(-c2ccncc2)nc(N2CCN[C@H](C(F)(F)F)C2)c1Cl [Compound 139] |
| 0.0269 | – | O=c1[nH]c(-c2ccncc2)nc(N2CCN[C@@H](C(F)(F)F)C2)c1Cl [Compound 180] |
| 0.0851 | 0.000776 | CC(C)(C)[C@H]1CN(c2nc(-c3ccncc3)[nH]c(=O)c2F)CCN1 [Compound 185] |
| 0.0123 | 0.000575 | O=c1[nH]c(-c2ccnc(F)c2)nc(N2CCN[C@@H](C(F)(F)F)C2)c1Cl [Compound 314] |
| 0.107 | – | C[C@H]1CN(c2nc(-c3ccncc3)[nH]c(=O)c2Cl)CCN1 [Compound 130] |

The next lines start with the compound.

| SMILES | EC50 [1] [µM] | IC50 (Cdc7/ASK) [µM] |
| --- | --- | --- |
| O=c1[nH]c(-c2ccnc(F)c2)nc(N2CCNCC2)c1Cl [Compound 360] | 0.0575 | – |
| O=c1[nH]c(-c2ccncc2)nc(N2CCN(CC(F)F)CC2)c1Cl [Compound 147] | 0.115 | – |
| N[C@H]1CCCN(c2nc(-c3ccnc(F)c3)[nH]c(=O)c2Cl)C1 [Compound 317] | 0.0977 | 0.00102 |
| C[C@@H]1CNCCN1c1nc(-c2ccnc(F)c2)[nH]c(=O)c1Cl [Compound 323] | 0.0224 | 0.000575 |
| N[C@@H]1CCCN(c2nc(-c3ccnc(F)c3)[nH]c(=O)c2Cl)C1 [Compound 319] | 0.0741 | 0.00151 |
| O=c1[nH]c(-c2ccnc(F)c2)nc(N2CCOCC2)c1Cl [Compound 316] | 0.0398 | – |
| NC[C@@H]1CCCN(c2nc(-c3ccnc(F)c3)[nH]c(=O)c2Cl)C1 [Compound 363] | 0.794 | 0.00178 |
| O=c1[nH]c(-c2ccnc(F)c2)nc(N2CCCC(F)(F)C2)c1Cl [Compound 90, 5-chloro-4-(3,3-difluoro-1-piperidyl)-2-(2-fluoro-4-pyridyl)-1H-pyrimidin-6-one] | 0.0331 | – |
| NC[C@H]1CCCN(c2nc(-c3ccnc(F)c3)[nH]c(=O)c2Cl)C1 [Compound 362] | 0.302 | 0.000741 |

— patent US10919896B2, “Preparation and uses of pyrimidinone derivatives” (Cancer Research Technology Limited, priority 2016, dated 2021)
